Reference: ChEMBL document CHEMBL1909046, “DrugMatrix in vitro pharmacology data”

Legend:
[1] = target: Melanocortin receptor 3 (Homo sapiens, UniProt P41968); assay type: cell membranes, Membrane; conditions: hek293; note: in other assays of this panel Not Active means under 50% inhibition at 10 µM
[2] = target: Melanocortin receptor 4 (Homo sapiens, UniProt P32245); assay type: cell membranes, Membrane; conditions: hek293; note: in other assays of this panel Not Active means under 50% inhibition at 10 µM
Chain of Melanocortin receptor 4 (P32245 whole entry): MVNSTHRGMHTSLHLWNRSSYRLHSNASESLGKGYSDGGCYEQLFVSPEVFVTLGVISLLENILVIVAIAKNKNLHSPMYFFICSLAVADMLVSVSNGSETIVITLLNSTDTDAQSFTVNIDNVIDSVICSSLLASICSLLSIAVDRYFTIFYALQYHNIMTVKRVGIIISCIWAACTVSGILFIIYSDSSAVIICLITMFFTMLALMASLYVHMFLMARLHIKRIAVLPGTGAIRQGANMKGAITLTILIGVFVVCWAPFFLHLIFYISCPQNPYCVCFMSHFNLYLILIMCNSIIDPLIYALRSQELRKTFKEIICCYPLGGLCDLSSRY

[3] = DRUGMATRIX: Potassium Channel [KATP] radioligand binding (ligand: [3H] Glyburide); assay type: cell membranes, Membrane; conditions: hit-t15; Not Active = under 50% inhibition at 10 µM
[4] = target: T1, Endothelin-1 receptor (Homo sapiens, UniProt P25101); assay type: cell membranes, Membrane; conditions: cho-k1; note: in other assays of this panel Not Active means under 50% inhibition at 10 µM
T1 sequence (P25101 whole entry): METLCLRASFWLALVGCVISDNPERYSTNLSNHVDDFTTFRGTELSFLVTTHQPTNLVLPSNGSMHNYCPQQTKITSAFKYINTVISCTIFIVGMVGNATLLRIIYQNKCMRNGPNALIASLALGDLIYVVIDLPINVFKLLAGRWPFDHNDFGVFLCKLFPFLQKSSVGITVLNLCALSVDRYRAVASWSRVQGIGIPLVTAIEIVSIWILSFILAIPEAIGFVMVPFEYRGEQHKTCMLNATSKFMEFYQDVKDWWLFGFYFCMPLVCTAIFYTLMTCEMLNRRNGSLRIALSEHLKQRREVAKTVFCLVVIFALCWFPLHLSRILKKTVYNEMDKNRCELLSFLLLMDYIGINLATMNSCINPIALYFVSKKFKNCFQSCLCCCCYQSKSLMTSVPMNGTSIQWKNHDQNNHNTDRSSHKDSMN

[5] = target: Histamine H2 receptor (Homo sapiens, UniProt P25021); assay type: cell membranes, CHO-K1, Membrane; conditions: cho-k1; note: in other assays of this panel Not Active means under 50% inhibition at 10 µM
Chain of Histamine H2 receptor (P25021 whole entry): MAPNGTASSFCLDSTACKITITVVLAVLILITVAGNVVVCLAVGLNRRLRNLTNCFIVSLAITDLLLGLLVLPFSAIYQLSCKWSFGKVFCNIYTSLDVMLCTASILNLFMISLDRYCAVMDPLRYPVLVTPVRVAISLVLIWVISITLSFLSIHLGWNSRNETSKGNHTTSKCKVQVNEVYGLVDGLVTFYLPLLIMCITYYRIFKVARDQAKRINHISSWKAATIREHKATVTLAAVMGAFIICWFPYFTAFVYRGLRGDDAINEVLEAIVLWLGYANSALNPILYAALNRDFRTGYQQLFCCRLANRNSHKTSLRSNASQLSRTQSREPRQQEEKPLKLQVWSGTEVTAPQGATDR

[6] = target: Vascular endothelial growth factor receptor 1 (Homo sapiens, UniProt P17948); assay type: cell-based; conditions: huvec; note: in other assays of this panel Not Active means under 50% inhibition at 10 µM
Chain of Vascular endothelial growth factor receptor 1 (P17948 whole entry): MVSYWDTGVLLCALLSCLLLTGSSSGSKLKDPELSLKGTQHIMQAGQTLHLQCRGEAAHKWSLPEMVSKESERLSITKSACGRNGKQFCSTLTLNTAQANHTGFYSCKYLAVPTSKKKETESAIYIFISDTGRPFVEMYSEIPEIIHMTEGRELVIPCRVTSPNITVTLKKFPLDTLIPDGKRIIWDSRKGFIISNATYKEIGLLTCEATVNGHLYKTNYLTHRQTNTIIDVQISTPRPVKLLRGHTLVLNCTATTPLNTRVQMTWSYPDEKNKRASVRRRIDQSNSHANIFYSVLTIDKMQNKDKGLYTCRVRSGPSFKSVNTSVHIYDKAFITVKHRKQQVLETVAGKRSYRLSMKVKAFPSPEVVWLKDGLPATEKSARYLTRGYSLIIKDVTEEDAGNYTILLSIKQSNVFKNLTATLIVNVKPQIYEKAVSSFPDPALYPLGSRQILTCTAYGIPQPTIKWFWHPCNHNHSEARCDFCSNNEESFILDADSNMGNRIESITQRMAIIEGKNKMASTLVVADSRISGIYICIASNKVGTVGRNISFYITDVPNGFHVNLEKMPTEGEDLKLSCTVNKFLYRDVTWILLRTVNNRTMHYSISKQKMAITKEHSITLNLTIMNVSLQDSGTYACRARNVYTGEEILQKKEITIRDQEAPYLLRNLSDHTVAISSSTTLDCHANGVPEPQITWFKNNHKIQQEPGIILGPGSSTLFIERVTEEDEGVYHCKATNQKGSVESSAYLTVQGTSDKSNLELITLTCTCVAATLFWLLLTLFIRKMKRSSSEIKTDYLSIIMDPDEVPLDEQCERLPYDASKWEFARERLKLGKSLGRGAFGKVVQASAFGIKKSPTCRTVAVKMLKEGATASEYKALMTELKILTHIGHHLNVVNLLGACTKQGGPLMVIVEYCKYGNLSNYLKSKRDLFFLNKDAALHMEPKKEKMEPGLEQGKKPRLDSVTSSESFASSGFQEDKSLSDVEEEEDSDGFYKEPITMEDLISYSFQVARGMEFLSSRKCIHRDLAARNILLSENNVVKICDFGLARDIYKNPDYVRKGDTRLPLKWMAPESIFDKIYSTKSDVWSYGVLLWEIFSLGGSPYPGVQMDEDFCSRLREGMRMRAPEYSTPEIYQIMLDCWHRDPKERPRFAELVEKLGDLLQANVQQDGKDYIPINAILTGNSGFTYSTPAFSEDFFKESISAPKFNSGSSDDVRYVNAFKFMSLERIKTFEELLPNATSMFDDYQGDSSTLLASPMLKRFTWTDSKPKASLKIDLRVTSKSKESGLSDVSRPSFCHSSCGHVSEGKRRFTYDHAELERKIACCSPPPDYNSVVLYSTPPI

Chain of Melanocortin receptor 3 (P41968 whole entry): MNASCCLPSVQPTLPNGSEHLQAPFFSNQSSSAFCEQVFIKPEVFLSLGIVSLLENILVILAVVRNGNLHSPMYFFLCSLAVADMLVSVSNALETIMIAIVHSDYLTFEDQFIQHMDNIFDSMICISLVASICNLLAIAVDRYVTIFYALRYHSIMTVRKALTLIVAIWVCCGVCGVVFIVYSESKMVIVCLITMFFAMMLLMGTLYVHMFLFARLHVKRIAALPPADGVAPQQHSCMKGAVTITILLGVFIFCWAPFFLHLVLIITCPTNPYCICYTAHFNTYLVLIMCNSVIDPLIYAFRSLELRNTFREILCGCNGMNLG

CCOc1nc2cccc(C(=O)O)c2n1Cc1ccc(-c2ccccc2-c2nnn[nH]2)cc1
Not Active: IC50 [1] | IC50 [2] | IC50 [3] | Ki [3] | IC50 [4] | IC50 [5] | IC50 [6]

O=C(O)CCCc1cccs1
Not Active: IC50 [1] | IC50 [2] | IC50 [3] | Ki [3] | IC50 [4] | IC50 [5] | IC50 [6]

COc1ccccc1N
Not Active: IC50 [1] | IC50 [2] | IC50 [3] | Ki [3] | IC50 [4] | IC50 [5] | IC50 [6]

O=C(c1ccccc1F)N1CCC(Cc2ccccc2)CC1
Not Active: IC50 [1] | IC50 [2] | IC50 [3] | Ki [3] | IC50 [4] | IC50 [5] | IC50 [6]

Cc1c(O)cccc1C(=O)N[C@@H](CSc1ccccc1)[C@H](O)CN1C[C@H]2CCCC[C@H]2C[C@H]1C(=O)NC(C)(C)C
Not Active: IC50 [1] | IC50 [2] | IC50 [3] | Ki [3] | IC50 [4] | IC50 [5] | IC50 [6]

CC(O)COC[C@H]1O[C@@H]2O[C@H]3[C@H](O)[C@@H](O)[C@@H](O[C@H]4[C@H](O)[C@@H](O)[C@@H](O[C@H]5[C@H](O)[C@@H](O)[C@@H](O[C@H]6[C@H](O)[C@@H](O)[C@@H](O[C@H]7[C@H](O)[C@@H](O)[C@@H](O[C@H]8[C@H](O)[C@@H](O)[C@@H](O[C@H]1[C@H](O)[C@H]2O)O[C@@H]8COCC(C)O)O[C@@H]7COCC(C)O)O[C@@H]6COCC(C)O)O[C@@H]5COCC(C)O)O[C@@H]4COCC(C)O)O[C@@H]3COCC(C)O (stereo partly drawn) [2-HYDROXYPROPYL-BETA-CYCLODEXTRIN]
Not Active: IC50 [1] | IC50 [2] | IC50 [3] | Ki [3] | IC50 [4] | IC50 [5] | IC50 [6]

NC(=O)c1cccc(N)c1 [3-AMINOBENZAMIDE]
Not Active: IC50 [1] | IC50 [2] | IC50 [3] | Ki [3] | IC50 [4] | IC50 [5] | IC50 [6]

C[C@H]1O[C@H](O[C@H]2[C@H](O)[C@@H](O)[C@@H](O[C@H]3[C@H](O)[C@@H](O)C(O)O[C@@H]3CO)O[C@@H]2CO)[C@H](O)[C@@H](O)[C@@H]1N[C@H]1C=C(CO)[C@@H](O)[C@H](O)[C@H]1O (stereo partly drawn) [ACARBOSE]
Not Active: IC50 [1] | IC50 [2] | IC50 [3] | Ki [3] | IC50 [4] | IC50 [5] | IC50 [6]

CC[C@H]1[C@@H]2C[C@H]3[C@@H]4N(C)c5ccccc5[C@]45C[C@@H]([C@@H]2[C@H]5O)N3[C@@H]1O [AJMALINE]
Not Active: IC50 [1] | IC50 [2] | IC50 [3] | Ki [3] | IC50 [4] | IC50 [5] | IC50 [6]

NC12CC3CC(CC(C3)C1)C2 [AMANTADINE]
Not Active: IC50 [1] | IC50 [2] | IC50 [3] | Ki [3] | IC50 [4] | IC50 [5] | IC50 [6]

NCCCNCCSP(=O)(O)O [AMIFOSTINE]
Not Active: IC50 [1] | IC50 [2] | IC50 [3] | Ki [3] | IC50 [4] | IC50 [5] | IC50 [6]

CN(C)CCC=C1c2ccccc2CCc2ccccc21 [AMITRIPTYLINE]
Not Active: IC50 [1] | IC50 [2] | IC50 [3] | Ki [3] | IC50 [4] | IC50 [6]

CC(=O)Oc1ccccc1C(=O)O [ASPIRIN]
Not Active: IC50 [1] | IC50 [2] | IC50 [3] | Ki [3] | IC50 [4] | IC50 [5] | IC50 [6]

CC(C)c1c(C(=O)Nc2ccccc2)c(-c2ccccc2)c(-c2ccc(F)cc2)n1CC[C@@H](O)C[C@@H](O)CC(=O)O [ATORVASTATIN]
Not Active: IC50 [1] | IC50 [2] | IC50 [3] | Ki [3] | IC50 [4] | IC50 [5] | IC50 [6]

CC(=O)OC[C@H]1O[C@@H](n2ncc(=O)[nH]c2=O)[C@H](OC(C)=O)[C@@H]1OC(C)=O [AZARIBINE]
Not Active: IC50 [1] | IC50 [2] | IC50 [3] | Ki [3] | IC50 [4] | IC50 [5] | IC50 [6]

C[C@H]1[C@H](NC(=O)/C(=N\OC(C)(C)C(=O)O)c2csc(N)n2)C(=O)N1S(=O)(=O)O [AZTREONAM]
Not Active: IC50 [1] | IC50 [2] | IC50 [3] | Ki [3] | IC50 [4] | IC50 [5] | IC50 [6]

O=C(O)CCNC(=O)c1ccc(/N=N/c2ccc(O)c(C(=O)O)c2)cc1 [BALSALAZIDE]
Not Active: IC50 [1] | IC50 [2] | IC50 [3] | Ki [3] | IC50 [4] | IC50 [5] | IC50 [6]

COc1cc(OC)c(C(=O)CCCN2CCCC2)c(OC)c1 [BUFLOMEDIL]
Not Active: IC50 [1] | IC50 [2] | IC50 [3] | Ki [3] | IC50 [4] | IC50 [5] | IC50 [6]

Cn1c(=O)c2c(ncn2C)n(C)c1=O [CAFFEINE]
Not Active: IC50 [1] | IC50 [2] | IC50 [3] | Ki [3] | IC50 [4] | IC50 [5] | IC50 [6]

ClC(Cl)(Cl)Cl [CARBON TETRACHLORIDE]
Not Active: IC50 [1] | IC50 [2] | IC50 [3] | Ki [3] | IC50 [4] | IC50 [5] | IC50 [6]

CO/N=C(\C(=O)N[C@@H]1C(=O)N2C(C(=O)O)=C(COC(C)=O)CS[C@H]12)c1csc(N)n1 [CEFOTAXIME]
Not Active: IC50 [1] | IC50 [2] | IC50 [3] | Ki [3] | IC50 [4] | IC50 [5] | IC50 [6]

CNC1=Nc2ccc(Cl)cc2C(c2ccccc2)=[N+]([O-])C1 [CHLORDIAZEPOXIDE]
Not Active: IC50 [1] | IC50 [2] | IC50 [3] | Ki [3] | IC50 [4] | IC50 [5] | IC50 [6]

Cc1cc(O)cc(C)c1Cl [CHLOROXYLENOL]
Not Active: IC50 [1] | IC50 [2] | IC50 [3] | Ki [3] | IC50 [4] | IC50 [5] | IC50 [6]

CCCNC(=O)NS(=O)(=O)c1ccc(Cl)cc1 [CHLORPROPAMIDE]
Not Active: IC50 [1] | IC50 [2] | IC50 [3] | Ki [3] | IC50 [4] | IC50 [5] | IC50 [6]

NS(=O)(=O)c1cc(C2(O)NC(=O)c3ccccc32)ccc1Cl (stereo not drawn) [CHLORTHALIDONE]
Not Active: IC50 [1] | IC50 [2] | IC50 [3] | Ki [3] | IC50 [4] | IC50 [5] | IC50 [6]

O=C(O)CC(O)(CC(=O)O)C(=O)O [CITRIC ACID]
Not Active: IC50 [1] | IC50 [2] | IC50 [3] | Ki [3] | IC50 [4] | IC50 [5] | IC50 [6]

CC(C)NCC(O)c1ccccc1Cl (stereo not drawn) [CLORPRENALINE]
Not Active: IC50 [1] | IC50 [2] | IC50 [3] | Ki [3] | IC50 [4] | IC50 [5] | IC50 [6]

CN1CCN(C(c2ccccc2)c2ccccc2)CC1 [CYCLIZINE]
Not Active: IC50 [1] | IC50 [2] | IC50 [3] | Ki [3] | IC50 [4] | IC50 [5] | IC50 [6]

CN1C[C@@H]2C[C@H]1CN2c1cc2c(cc1F)c(=O)c(C(=O)O)cn2C1CC1 [DANOFLOXACIN]
Not Active: IC50 [1] | IC50 [2] | IC50 [3] | Ki [3] | IC50 [4] | IC50 [5] | IC50 [6]

COc1cccc2c1C(=O)c1c(O)c3c(c(O)c1C2=O)C[C@@](O)(C(C)=O)C[C@@H]3O[C@H]1C[C@H](N)[C@H](O)[C@H](C)O1 [DAUNORUBICIN]
Not Active: IC50 [1] | IC50 [2] | IC50 [3] | Ki [3] | IC50 [4] | IC50 [5] | IC50 [6]

O=C(O)c1cc(-c2ccc(F)cc2F)ccc1O [DIFLUNISAL]
Not Active: IC50 [1] | IC50 [2] | IC50 [3] | Ki [3] | IC50 [4] | IC50 [5] | IC50 [6]

C[S+](C)[O-] [DIMETHYL SULFOXIDE]
Not Active: IC50 [1] | IC50 [2] | IC50 [3] | Ki [3] | IC50 [4] | IC50 [5] | IC50 [6]

CCn1cc(C(=O)O)c(=O)c2cc(F)c(N3CCNC(C)C3)c(F)c21 (stereo not drawn) [LOMEFLOXACIN]
Not Active: IC50 [1] | IC50 [2] | IC50 [4] | IC50 [5] | IC50 [6]
